From patent US10550105B2 (Ribon Therapeutics Inc., priority 2018, dated 2020)

biological target: PARP7 (Homo sapiens (Human), UniProt Q7Z3E1); test: Enzymatic assay for inhibition of PARP7: TR-FRET displacement of biotinylated Probe A from the TIPARP active site; type: binding; details: Table A-1
How it was run: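 Percent inhibition derives from the ratio of 665 to 615 nm emission, which reports how much Probe A remains bound to TIPARP. Plates sat 30 min at 25° C before the time-resolved read (320 nm excitation).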

Sequence of PARP7 (Q7Z3E1 whole entry): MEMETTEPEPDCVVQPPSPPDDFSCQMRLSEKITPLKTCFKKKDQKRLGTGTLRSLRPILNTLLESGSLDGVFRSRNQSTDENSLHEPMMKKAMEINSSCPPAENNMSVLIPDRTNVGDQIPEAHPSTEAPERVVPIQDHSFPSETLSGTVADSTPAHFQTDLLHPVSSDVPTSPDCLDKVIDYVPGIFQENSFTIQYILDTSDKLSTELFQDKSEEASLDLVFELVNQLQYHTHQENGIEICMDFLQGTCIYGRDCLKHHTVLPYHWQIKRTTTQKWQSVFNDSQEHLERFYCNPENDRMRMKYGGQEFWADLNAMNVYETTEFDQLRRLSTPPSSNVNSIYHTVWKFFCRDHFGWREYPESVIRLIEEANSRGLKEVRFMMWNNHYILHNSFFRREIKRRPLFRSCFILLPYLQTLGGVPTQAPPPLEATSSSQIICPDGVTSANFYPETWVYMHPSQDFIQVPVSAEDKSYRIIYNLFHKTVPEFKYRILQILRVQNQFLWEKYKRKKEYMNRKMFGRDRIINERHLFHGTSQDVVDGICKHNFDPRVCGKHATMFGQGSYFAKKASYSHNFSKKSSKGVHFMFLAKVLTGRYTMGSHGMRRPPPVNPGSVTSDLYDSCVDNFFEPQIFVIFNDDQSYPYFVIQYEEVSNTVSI

IC50, ≥ 1000 nM:
N#Cc1cnc(N2CCN(C(=O)c3cccc(OC[C@H]4CCCN4c4cn[nH]c(=O)c4C(F)(F)F)c3)CC2)nc1 [Example 438, (R)-2-(4-(3-((1-(6-Oxo-5-(trifluoromethyl)-1,6-dihydropyridazin-4-yl)pyrrolidin-2-yl)methoxy)benzoyl)piperazin-1-yl)pyrimidine-5-carbonitrile]
N#Cc1ccc(N2CCN(C(=O)C[C@@H]3CC[C@@H](COc4cn[nH]c(=O)c4C(F)(F)F)N3)CC2)nc1 [Example 639, 6-(4-(2-((2S,5S)-5-(((6-Oxo-5-(trifluoromethyl)-1,6-dihydropyridazin-4-yl)oxy)methyl)pyrrolidin-2-yl)acetyl)piprazin-1-yl)nicotinonitrile]
O=C(c1cccc(OC[C@H]2c3ccccc3CN2c2cn[nH]c(=O)c2C(F)(F)F)c1)N1CCN(c2ccc(C(F)(F)F)cn2)CC1 (single isomer, unassigned) [Example 30 Isomer A]

IC50, < 100 nM:
N#Cc1ccc(N2CCN(C(=O)c3cncc(OC[C@@H]4c5ccccc5CN4c4cn[nH]c(=O)c4C(F)(F)F)n3)CC2)nc1 (single isomer, unassigned) [Example 72 Isomer A]
CC1(C)C[C@@H](COCCC(=O)N2CCN(c3ccc(C#N)cn3)CC2)N(c2cn[nH]c(=O)c2C(F)(F)F)C1 [Example 484, (S)-6-(4-(3-((4,4-Dimethyl-1-(6-oxo-5-(trifluoromethyl)-1,6-dihydropyridazin-4-yl)pyrrolidin-2-yl)methoxy)propanoyl)piperazin-1-yl)nicotinonitrile]
O=c1[nH]ncc(N2Cc3cc(F)c(OC4CCNCC4)cc3C2)c1C(F)(F)F [Example 279, 5-(5-Fluoro-6-(piperidin-4-yloxy)isoindolin-2-yl)-4-(trifluoromethyl)pyridazin-3(2H)-one]
O=c1[nH]ncc(N2Cc3cccc(OC4CCOCC4)c3C2)c1C(F)(F)F [Example 194, 5-(4-((Tetrahydro-2H-pyran-4-yl)oxy)isoindolin-2-yl)-4-(trifluoromethyl)pyridazin-3(2H)-one]
N#Cc1ccc(N2CCN(C(=O)c3ccnc(OC[C@@H]4CCCN4c4cn[nH]c(=O)c4C(F)(F)F)c3)CC2)nc1 [Example 69, 6-[4-[(2-[[(2S)-1-[6-oxo-5-(trifluoromethyl)-1,6-dihydropyridazin-4-yl]pyrrolidin-2-yl]methoxy]pyridin-4-yl)carbonyl]piperazin-1-yl]pyridine-3-carbonitrile]
N#Cc1ccc(N2CCN(C(=O)CCOC[C@@H](CO)Oc3cn[nH]c(=O)c3C(F)(F)F)CC2)nc1 (single isomer, unassigned) [Example 573 Isomer B]
C[C@H](CC(=O)N1CCN(c2ccc(C#N)cn2)CC1)OC[C@H](C)Oc1cn[nH]c(=O)c1C(F)(F)F (single isomer, unassigned) [Example 576 Isomer A]
Cc1cnc(N2CCN(C(=O)CCOC[C@H](C)Nc3cn[nH]c(=O)c3C(F)(F)F)CC2)nc1 [Example 670, (S)-5-((1-(3-(4-(5-Methylpyrimidin-2-yl)piperazin-1-yl)-3-oxopropoxy)propan-2-yl)amino)-4-(trifluoromethyl)pyridazin-3(2H)-one]
O=C(CCOC[C@H](CO)Nc1cn[nH]c(=O)c1Br)N1CCN(c2ncc(C(F)(F)F)cn2)CC1 [Example 660, (S)-4-Bromo-5-((1-hydroxy-3-(3-oxo-3-(4-(5-(trifluoromethyl)pyrimidin-2-yl)piperazin-1-yl)propoxy)propan-2-yl)amino)pyridazin-3(2H)-one]
O=C(CCOCCOc1cn[nH]c(=O)c1Br)N1CCN(c2ncc(C(F)(F)F)cn2)CC1 [Example 548, 4-Bromo-5-[2-(3-oxo-3-[4-[5-(trifluoromethyl)pyrimidin-2-yl]piperazin-1-yl]propoxy)ethoxy]-2,3-dihydropyridazin-3-one]
O=C(C[C@@H]1CC[C@H](CNc2cn[nH]c(=O)c2C(F)(F)F)O1)N1CCN(c2ncc(Cl)cn2)CC1 (single isomer, unassigned) [Example 567 Isomer B]
N#Cc1ccc(N2CCN(C(=O)C[C@@H]3CC[C@H](COc4cn[nH]c(=O)c4C(F)(F)F)O3)CC2)nc1 [Example 580 Isomer D, 6-(4-[2-[(2S,5R)-5-([[6-oxo-5-(trifluoromethyl)-1,6-dihydropyridazin-4-yl]oxy]methyl)oxolan-2-yl]acetyl]piperazin-1-yl)pyridine-3-carbonitrile]
C[C@@H](COCCC(=O)N1CCN(c2ncc(C(F)(F)F)cn2)CC1)Sc1cn[nH]c(=O)c1Cl [Example 701, (S)-4-Chloro-5-((1-(3-oxo-3-(4-(5-(trifluoromethyl)pyrimidin-2-yl)piperazin-1-yl)propoxy)propan-2-yl)thio)pyridazin-3(2H)-one]
CN(C)c1cccc2c1CN(c1cn[nH]c(=O)c1C(F)(F)F)C2 [Example 178, 5-(4-(Dimethylamino)isoindolin-2-yl)-4-(trifluoromethyl)pyridazin-3(2H)-one]

IC50, 100 to 1000 nM:
N#Cc1ccc(N2CCN(C(=O)N3CC[C@@H](OC[C@@H]4CCCN4c4cn[nH]c(=O)c4C(F)(F)F)C3)CC2)nc1 [Example 129A, 6-[4-[(3R)-3-[[(2S)-1-[6-oxo-5-(trifluoromethyl)-1,6-dihydropyridazin-4-yl]pyrrolidin-2-yl]methoxy]pyrrolidine-1-carbonyl]piperazin-1-yl]pyridine-3-carbonitrile]
N#Cc1ccc(N2CCN(C(=O)CCOC[C@H]3c4ccccc4CN3c3cn[nH]c(=O)c3C(F)(F)F)CC2)nc1 (single isomer, unassigned) [Example 93 Isomer B]
O=c1[nH]ncc(N2Cc3cccc(F)c3C2)c1Cl [Example 60, 4-Chloro-5-(4-fluoro-2,3-dihydro-1H-isoindol-2-yl)-2,3-dihydropyridazin-3-one]
NC1CCN(c2cccc3c2CN(c2cn[nH]c(=O)c2C(F)(F)F)C3)CC1 [Example 296, 5-(4-(4-Aminopiperidin-1-yl)isoindolin-2-yl)-4-(trifluoromethyl)pyridazin-3(2H)-one]
CN(C)CCOc1cnc2c(c1)CN(c1cn[nH]c(=O)c1C(F)(F)F)C2 [Example 335, 5-(3-(2-(Dimethylamino)ethoxy)-5,7-dihydro-6H-pyrrolo[3,4-b]pyridin-6-yl)-4-(trifluoromethyl)pyridazin-3(2H)-one]
N#Cc1ccc(N2CCN(C(=O)c3ccc(OCC4c5ccccc5CN4c4cn[nH]c(=O)c4C(F)(F)F)cc3)CC2)nc1 (stereo not shown) [Example 371, 6-(4-(4-((2-(6-Oxo-5-(trifluoromethyl)-1,6-dihydropyridazin-4-yl)isoindolin-1-yl)methoxy)benzoyl)piperazin-1-yl)nicotinonitrile]
O=c1[nH]ncc(N2Cc3cc(OC4CCNCC4)cnc3C2)c1C(F)(F)F [Example 7, 5-[3-(piperidin-4-yloxy)-5H,6H,7H-pyrrolo[3,4-b]pyridin-6-yl]-4-(trifluoromethyl)-2,3-dihydropyridazin-3-one]
O=C(c1cncc(OC[C@H]2c3ccccc3CN2c2cn[nH]c(=O)c2C(F)(F)F)c1)N1CCN(c2ccc(Cl)cn2)CC1 [Example 389, (R)-5-(1-(((5-(4-(5-Chloropyridin-2-yl)piperazine-1-carbonyl)pyridin-3-yl)oxy)methyl)isoindolin-2-yl)-4-(trifluoromethyl)pyridazin-3(2H)-one]
